Assay results taken from patent publication EP2848693A1, “Concatenation of halogenated alkenyl diphosphate derivatives” (LANXESS Deutschland GmbH, priority 2013, dated 2015).

Assays:
EcUPPS = biological target: T1, EcUPPS (Escherichia coli, UniProt P60472); experiment: Prenyltransferase activity test, conversion of FPP with elongation substrate (MTP phosphate detection assay); format: biochemical; settings: 5 µM E,E-FPP, 200 µM elongation substrate, 50 µM enzyme, room temperature
T1 construct: made in house; host or cells: E. coli
Procedure: (§1) Die Aktivität der Prenyltransferasen wurde hinsichtlich der Umsetzung von Farnesyldiphosphat (FPP) als Startersubstrat und Isopentenyldiphosphat (IPP), und Cl-BPP bzw. Br-BPP mit Hilfe des MTP-Phosphatdetektionsassays bestimmt.
(§2) Cl-BPP und jeweils 50 µM Enzym bei Raumtemperatur durchgeführt. […] Cl-BPP gezeigt werden. Als Negativkontrolle diente ein Ansatz ohne Enzym (nicht gezeigt).

HpUPPS = biological target: T2, HpUPPS (Helicobacter pylori, UniProt P55984); experiment: as above; format: biochemical; settings: 5 µM E,E-FPP, 200 µM elongation substrate, 50 µM enzyme, room temperature
T2 construct: poly-Histidin-Tag (His6) (N); made in house; host or cells: E. coli BL21 (DE3)
Procedure: as §1, §2

MIUPPS = biological target: T3, MIUPPS (Micrococcus luteus, UniProt O82827); experiment: as above; format: biochemical; settings: 5 µM E,E-FPP, 200 µM elongation substrate, 50 µM enzyme, room temperature
T3 construct: poly-Histidin-Tag (His6) (N); made in house; host or cells: E. coli BL21 (DE3)
T3 sequence (O82827 1-249): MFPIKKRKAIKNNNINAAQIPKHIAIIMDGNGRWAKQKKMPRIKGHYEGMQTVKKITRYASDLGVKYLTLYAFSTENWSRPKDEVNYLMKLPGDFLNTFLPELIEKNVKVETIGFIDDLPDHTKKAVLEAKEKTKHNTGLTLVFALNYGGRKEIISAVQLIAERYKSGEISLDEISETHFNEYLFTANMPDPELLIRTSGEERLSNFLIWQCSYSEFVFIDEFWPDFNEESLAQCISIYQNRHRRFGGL
Procedure: as §1, §2

MtUPPS = biological target: T4, MtUPPS (Mycobacterium tuberculosis, UniProt P9WFF7); experiment: as above; format: biochemical; settings: 5 µM E,E-FPP, 200 µM elongation substrate, 50 µM enzyme, room temperature
T4 construct: poly-Histidin-Tag (His6) (N); made in house; host or cells: E. coli BL21 (DE3)
Procedure: as §1, §2

ThkCPT = biological target: T5, ThkCPT (Thermococcus kodakarensis, UniProt Q5JGE1); experiment: Product chain length by HPLC with fluorescent starter substrate 110; format: biochemical, Thermococcus kodakaraensis; settings: 10 µM ThkCPT, 110 as starter substrate, room temperature 25°C
T5 construct: made in house; host or cells: E. coli
T5 sequence (Q5JGE1 1-264): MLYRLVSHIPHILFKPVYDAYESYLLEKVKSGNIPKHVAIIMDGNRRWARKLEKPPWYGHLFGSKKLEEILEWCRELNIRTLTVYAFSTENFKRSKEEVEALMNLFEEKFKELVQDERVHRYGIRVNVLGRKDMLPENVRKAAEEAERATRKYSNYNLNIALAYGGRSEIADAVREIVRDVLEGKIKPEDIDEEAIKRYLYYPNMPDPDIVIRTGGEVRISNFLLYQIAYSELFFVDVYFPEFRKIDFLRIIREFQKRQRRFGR
Procedure: Zur Bestimmung der Produktkettenlängen wurden 500 µL Enzymassays in MS-Gläschen durchgeführt. […] Die Extraktion der Polyprenyldiphosphate erfolgte mit 500 µL 1-Butanol. Die Butanolphase wurde in ein neues Glas überführt und unter Stickstoffstrom von dem Lösungsmittel befreit. Die Hydrolyse der Diphosphate zum Polyprenol erfolgte durch Zugabe von 200 µL Hydrolysepuffer (20% Isopropanol, 4,4 Units/mL saure Phophatase aus Kartoffeln, 0,1 % Triton X-100, 50 mM Natriumacetat (pH 4,7)) und wurde über Nacht bei 37 °C inkubiert. Die Polyprenole wurden mit 500 µL nHexan extrahiert und zur weiteren DC- oder HPLC-Analyse vorbereitet. Für DC-Experimente und LC/ESI-MS-Analysen wurde die nHexan-Phase in ein neues Glas überführt, das Lösungsmittel abgedampft und die Produkte erneut in 100 µL nHexan resuspendiert um eine Aufkonzentrierung zu erreichen. Für HPLC-Analysen mit 110 ((2E,6E)-8-O-(N-methyl-2-aminobenzoyl)-3,7-dimethyl-2,6-octandien-1-diphosphat) als Startersubstrat wurde die nHexan-Phase 1:3 verdünnt in das HPLC-System mittels Autosampler injiziert.
Die HPLC-Analyse der Polyprenole erfolgte an einer Anlage von Merck HITACHI D-7000, wobei als stationäre Phase eine YMC-ODS AQ (150 x 4 mm, 5 µm; YMC Europe GmbH, Dinslaken) Säule verwendet wurde. Die Elution erfolgte mit 1 mL·min^-1 und die Detektion bei 210 nm mit einem UV-VIS Detektor: Merck HITACHI L-7420. Das Injektionsvolumen betrug dabei 5 µL. Die mobile Phase setzte sich aus Laufmittel A (MeOH/H2O/Isopropanol 12:1:8 (v/v/v)) und Laufmittel B (nHexan/Isopropanol 7:3 (v/v)) zusammen. Die Probenaufgabe erfolgte mittels Autosampler (Merck HITACHI L-7250). [drawing 35]
Zur selektiven und vor allem sensitiven Detektion von Polyprenolen kann ein alternatives, fluoreszierendes Startersubstrat verwendet werden, (2E,6E)-8-O-(N-methyl-2-aminobenzoyl)-3,7-dimethyl-2,6-octandien-1-diphosphat (110). Die Analyse erfolgte wie in Beispiel 6 beschrieben. Dabei wurden 3 µL pro Probe injiziert und die Detektion erfolgte über Fluoreszenz: Ex 352 nm / Em 420 nm wobei das Gerät Merck HITACHI L-7480 als Fluoreszenzdetektor verwendet wurde. […]

T1 sequence (P60472 whole entry): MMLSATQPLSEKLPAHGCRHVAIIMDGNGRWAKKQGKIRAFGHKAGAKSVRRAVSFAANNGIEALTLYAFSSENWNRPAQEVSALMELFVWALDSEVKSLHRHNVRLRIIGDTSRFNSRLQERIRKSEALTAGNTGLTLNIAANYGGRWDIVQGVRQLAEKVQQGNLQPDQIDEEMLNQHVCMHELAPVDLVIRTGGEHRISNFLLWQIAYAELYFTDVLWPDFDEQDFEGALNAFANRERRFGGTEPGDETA
T2 sequence (P55984 whole entry): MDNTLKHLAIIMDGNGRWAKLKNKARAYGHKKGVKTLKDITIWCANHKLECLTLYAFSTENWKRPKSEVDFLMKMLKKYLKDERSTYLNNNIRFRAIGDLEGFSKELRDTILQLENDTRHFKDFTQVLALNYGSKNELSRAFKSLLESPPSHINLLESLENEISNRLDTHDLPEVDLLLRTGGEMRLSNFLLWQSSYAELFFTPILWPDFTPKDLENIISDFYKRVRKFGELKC
T4 sequence (P9WFF7 whole entry): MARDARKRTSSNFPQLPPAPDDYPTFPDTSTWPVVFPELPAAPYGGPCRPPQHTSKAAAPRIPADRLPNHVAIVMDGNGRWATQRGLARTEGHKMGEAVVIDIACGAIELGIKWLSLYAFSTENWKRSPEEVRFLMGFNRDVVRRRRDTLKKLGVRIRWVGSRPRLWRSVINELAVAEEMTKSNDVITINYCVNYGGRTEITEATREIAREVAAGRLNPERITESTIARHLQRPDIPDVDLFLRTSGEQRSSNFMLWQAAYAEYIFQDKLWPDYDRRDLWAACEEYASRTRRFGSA

C=C(Cl)CCOP(=O)(O)OP(=O)(O)O [Cl-BPP, 3-Chlor-3-Butenyldiphosphat]
Aktivität (Umsetzung von FPP mit Elongationssubstrat) (EcUPPS): höchste Aktivität
Aktivität (Umsetzung von FPP mit Elongationssubstrat) (HpUPPS): im geringeren Maße
Aktivität (Umsetzung von FPP mit Elongationssubstrat) (MIUPPS): im geringeren Maße
Aktivität (Umsetzung von FPP mit Elongationssubstrat) (MtUPPS): höchste Aktivität
Kondensationen (Reaktionsprodukte) (ThkCPT): mehr als zwei Kondensationen
